Results from patent US12692221B2 (priority 2024, dated 2026).

Legend:
[1] = molecular target: 5-HT2B (Homo sapiens, UniProt P41595); test: Calcium flux agonist assay, 293T cells; assay type: cell-based; set-up: expressed in transfected cells; host or cells: Human Embryonic Kidney (293T) cells, transient; details: for Emax: HEK-293T, normalized to maximum 5-HT response; for 5-HT2B receptor activation: in words
[2] = molecular target: T1, PDE4D2(h) (Homo sapiens, UniProt Q08499); test: Enzyme assay PDE4D2(h), [3H]cAMP, scintillation counting; assay type: biochemical
T1 construct: host or cells: Sf9 cells
T1 sequence (Q08499 303-809 limits assumed): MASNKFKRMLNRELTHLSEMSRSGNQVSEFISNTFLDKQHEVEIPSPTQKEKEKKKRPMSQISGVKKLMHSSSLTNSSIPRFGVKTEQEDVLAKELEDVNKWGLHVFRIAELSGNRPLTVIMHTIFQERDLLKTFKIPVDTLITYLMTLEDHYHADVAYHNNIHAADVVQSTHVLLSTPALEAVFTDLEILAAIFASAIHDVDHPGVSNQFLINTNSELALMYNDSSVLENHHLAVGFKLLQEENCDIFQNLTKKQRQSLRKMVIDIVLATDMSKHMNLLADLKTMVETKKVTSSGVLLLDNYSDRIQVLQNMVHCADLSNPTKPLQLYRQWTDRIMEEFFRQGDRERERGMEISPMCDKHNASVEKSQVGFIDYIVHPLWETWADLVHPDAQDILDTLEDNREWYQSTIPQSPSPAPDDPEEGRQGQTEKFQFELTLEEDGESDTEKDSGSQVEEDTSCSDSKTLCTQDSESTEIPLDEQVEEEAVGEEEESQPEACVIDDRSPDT
Method: Methods—Enzyme and Uptake Assays: In vitro enzyme and uptake assays were conducted by Eurofins Discovery using human recombinant enzymes expressed in various mammalian and insect cell lines. Enzymatic activity was measured using appropriate substrates or tracers under conditions optimized for each target, as detailed in Table 7. Reactions were incubated at room temperature for a defined duration and terminated according to established protocols. The measured components (either enzymatic products or remaining substrate) were quantified using fluorimetry, photometry, scintillation counting, or LANCE technology, depending on the assay. Assay-specific parameters, including substrate identity, cell line source, incubation time, and detection method, are provided in Table 7.
All measurements were performed in technical replicates to ensure reproducibility and data quality.
Results were expressed both as a percentage of control-specific activity and as percent inhibition of control-specific activity. Percent activity was calculated as (measured specific activity/control specific activity)×100, and percent inhibition as 100−[(measured specific activity/control specific activity)×100], based on values obtained in the presence of test compounds. IC50 and EC50 values, along with Hill coefficients (nH), were determined by nonlinear regression analysis of inhibition or concentration-response curves generated from mean replicate values. Hill curve fitting was performed as previously described using software developed at Cerep and validated against SigmaPlot® 4.0 for Windows® (© 1997 by SPSS Inc.).

[3] = system: KV channel; assay type: binding, rat; details: KV channel (antagonist radiolig.)
[4] = molecular target: T2, CCK1 (CCKA) (h) (Homo sapiens, UniProt P32238); test: Radioligand binding CCK1 (CCKA) (h) (agonist radioligand), [^125I]CCK-8s, CHO cells; details: CCK1 (CCKA) (h) (agonist radiolig.)
T2 construct: expressed in transfected cells; host or cells: CHO cells
T2 sequence (P32238 1-428): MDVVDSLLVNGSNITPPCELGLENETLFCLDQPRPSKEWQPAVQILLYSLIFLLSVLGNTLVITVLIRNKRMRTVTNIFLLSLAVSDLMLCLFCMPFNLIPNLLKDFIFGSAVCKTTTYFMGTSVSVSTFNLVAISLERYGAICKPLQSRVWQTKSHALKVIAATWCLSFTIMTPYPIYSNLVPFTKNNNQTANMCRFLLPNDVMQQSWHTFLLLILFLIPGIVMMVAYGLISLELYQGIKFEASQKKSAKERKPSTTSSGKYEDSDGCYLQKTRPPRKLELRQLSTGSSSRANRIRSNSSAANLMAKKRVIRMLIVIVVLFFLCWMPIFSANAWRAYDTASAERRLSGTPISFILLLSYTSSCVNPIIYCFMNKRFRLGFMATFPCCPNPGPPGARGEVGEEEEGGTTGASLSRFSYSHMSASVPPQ
Method: (§1) Methods—Binding Assays: In vitro binding assays were performed using human recombinant receptors expressed in mammalian cell lines. Receptors were expressed in either HEK-293 or CHO cells depending on the target, and assay conditions (radioligand, concentration, nonspecific competitor, temperature, and incubation time) were optimized for each receptor. All assays were conducted in triplicate, and specific binding was quantified by scintillation counting as the detection method for each listed assay.
(§2) Specific binding was expressed as a percentage of control-specific binding, and percent inhibition was calculated using the formula in Ex. 8 above. Half-maximal inhibitory concentrations (IC50) were determined by non-linear regression analysis of the inhibition curves using the Hill equation (see Ex. 8). Inhibition constants (Ki) were calculated using the Cheng-Prusoff equation (see Ex. 8). KD values used in these calculations had been previously established for each receptor under the assay conditions (see Table 6). Data analysis was performed using software developed at Cerep and validated against SigmaPlot 4.0 for Windows.

[5] = system: NMDA; test: Radioligand binding NMDA (antagonist radioligand), [^3H]CGP 39653, rat cerebral cortex
[6] = molecular target: T3, V1a (h) (Homo sapiens, UniProt P37288); test: Radioligand binding V1a (h) (agonist radioligand), [^3H]AVP, CHO cells
T3 construct: expressed in transfected cells; host or cells: CHO cells
T3 sequence (P37288 whole entry): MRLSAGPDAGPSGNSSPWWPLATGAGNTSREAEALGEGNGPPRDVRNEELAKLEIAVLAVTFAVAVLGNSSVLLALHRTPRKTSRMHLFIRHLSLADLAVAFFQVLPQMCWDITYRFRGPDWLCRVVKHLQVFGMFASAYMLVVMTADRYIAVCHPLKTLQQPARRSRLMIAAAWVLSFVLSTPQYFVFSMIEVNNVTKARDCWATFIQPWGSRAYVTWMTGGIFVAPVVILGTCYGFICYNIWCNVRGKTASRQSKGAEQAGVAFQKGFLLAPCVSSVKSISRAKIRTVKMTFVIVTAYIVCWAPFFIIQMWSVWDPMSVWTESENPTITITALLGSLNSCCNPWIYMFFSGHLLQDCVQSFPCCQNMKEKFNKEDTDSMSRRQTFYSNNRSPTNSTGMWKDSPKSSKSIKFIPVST
Method: as §1, §2

[7] = molecular target: T4, M2 (h) (Homo sapiens, UniProt P08172); test: Radioligand binding M2 (h) (antagonist radioligand), [^3H]AF-DX 384, CHO cells
T4 construct: expressed in transfected cells; host or cells: CHO cells
T4 sequence (P08172 1-466): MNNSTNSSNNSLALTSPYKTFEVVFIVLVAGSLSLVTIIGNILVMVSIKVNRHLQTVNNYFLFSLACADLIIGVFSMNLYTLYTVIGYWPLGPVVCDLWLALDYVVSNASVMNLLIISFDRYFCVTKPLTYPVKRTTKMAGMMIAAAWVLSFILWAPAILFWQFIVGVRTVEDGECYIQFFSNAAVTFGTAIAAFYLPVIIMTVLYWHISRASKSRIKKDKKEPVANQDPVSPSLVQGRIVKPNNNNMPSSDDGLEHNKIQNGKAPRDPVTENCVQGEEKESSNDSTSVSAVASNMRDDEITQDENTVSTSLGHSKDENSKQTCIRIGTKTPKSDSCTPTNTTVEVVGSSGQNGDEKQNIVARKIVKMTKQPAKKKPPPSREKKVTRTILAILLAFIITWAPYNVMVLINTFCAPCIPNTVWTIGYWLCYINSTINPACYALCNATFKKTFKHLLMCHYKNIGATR
Method: as §1, §2

[8] = molecular target: T5, M3 (h) (Homo sapiens, UniProt P20309); test: Radioligand binding M3 (h) (antagonist radioligand), [^3H]4-DAMP, CHO cells
T5 construct: expressed in transfected cells; host or cells: CHO cells
T5 sequence (P20309 whole entry): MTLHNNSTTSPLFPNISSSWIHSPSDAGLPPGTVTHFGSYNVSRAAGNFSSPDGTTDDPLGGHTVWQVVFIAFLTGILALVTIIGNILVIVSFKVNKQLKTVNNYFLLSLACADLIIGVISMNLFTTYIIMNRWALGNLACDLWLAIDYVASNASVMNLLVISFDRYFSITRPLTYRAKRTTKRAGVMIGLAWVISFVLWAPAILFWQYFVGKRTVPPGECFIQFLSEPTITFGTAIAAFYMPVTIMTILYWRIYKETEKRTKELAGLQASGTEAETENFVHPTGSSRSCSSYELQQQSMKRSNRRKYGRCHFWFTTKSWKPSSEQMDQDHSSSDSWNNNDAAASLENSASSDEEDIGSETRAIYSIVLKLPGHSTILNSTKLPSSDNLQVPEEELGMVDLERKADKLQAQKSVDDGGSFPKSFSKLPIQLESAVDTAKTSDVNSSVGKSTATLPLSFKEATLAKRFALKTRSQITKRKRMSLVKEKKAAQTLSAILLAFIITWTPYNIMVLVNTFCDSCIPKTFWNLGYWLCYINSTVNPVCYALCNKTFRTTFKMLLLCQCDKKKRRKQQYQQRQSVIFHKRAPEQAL
Method: as §1, §2

[9] = molecular target: T6, ETA (h) (Homo sapiens, UniProt P25101); test: Radioligand binding ETA (h) (agonist radioligand), [^125I]endothelin-1, CHO cells
T6 construct: expressed in transfected cells; host or cells: CHO cells
T6 sequence (P25101 21-427): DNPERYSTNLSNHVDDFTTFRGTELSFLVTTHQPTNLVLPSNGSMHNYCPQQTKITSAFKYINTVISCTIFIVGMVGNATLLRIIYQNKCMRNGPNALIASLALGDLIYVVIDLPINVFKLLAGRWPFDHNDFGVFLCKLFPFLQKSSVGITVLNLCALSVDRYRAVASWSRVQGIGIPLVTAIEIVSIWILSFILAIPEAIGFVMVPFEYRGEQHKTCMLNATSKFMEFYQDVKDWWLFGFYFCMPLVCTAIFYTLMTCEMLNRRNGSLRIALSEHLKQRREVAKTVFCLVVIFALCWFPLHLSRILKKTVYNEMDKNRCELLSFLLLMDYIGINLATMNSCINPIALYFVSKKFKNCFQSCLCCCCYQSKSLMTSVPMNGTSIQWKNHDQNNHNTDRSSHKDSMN
Method: as §1, §2

[10] = molecular target: T7, beta2 (h) (Homo sapiens, UniProt P07550); test: Radioligand binding beta2 (h) (antagonist radioligand), [^3H](−)CGP 12177, CHO cells
T7 construct: expressed in transfected cells; host or cells: CHO cells
T7 sequence (P07550 whole entry): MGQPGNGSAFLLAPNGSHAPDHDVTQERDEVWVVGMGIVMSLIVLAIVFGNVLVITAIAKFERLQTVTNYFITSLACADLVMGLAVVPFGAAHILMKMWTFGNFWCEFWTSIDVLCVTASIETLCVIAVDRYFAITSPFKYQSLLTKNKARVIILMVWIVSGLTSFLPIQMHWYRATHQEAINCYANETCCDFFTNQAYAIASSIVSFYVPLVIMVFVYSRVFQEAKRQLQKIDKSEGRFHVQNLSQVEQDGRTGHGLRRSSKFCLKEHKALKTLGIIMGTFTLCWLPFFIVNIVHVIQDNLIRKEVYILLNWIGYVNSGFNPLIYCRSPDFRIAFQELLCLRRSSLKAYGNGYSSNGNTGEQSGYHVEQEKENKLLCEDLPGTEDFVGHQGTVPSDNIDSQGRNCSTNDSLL
Method: as §1, §2

5-HT2B, sequence (P41595 whole entry): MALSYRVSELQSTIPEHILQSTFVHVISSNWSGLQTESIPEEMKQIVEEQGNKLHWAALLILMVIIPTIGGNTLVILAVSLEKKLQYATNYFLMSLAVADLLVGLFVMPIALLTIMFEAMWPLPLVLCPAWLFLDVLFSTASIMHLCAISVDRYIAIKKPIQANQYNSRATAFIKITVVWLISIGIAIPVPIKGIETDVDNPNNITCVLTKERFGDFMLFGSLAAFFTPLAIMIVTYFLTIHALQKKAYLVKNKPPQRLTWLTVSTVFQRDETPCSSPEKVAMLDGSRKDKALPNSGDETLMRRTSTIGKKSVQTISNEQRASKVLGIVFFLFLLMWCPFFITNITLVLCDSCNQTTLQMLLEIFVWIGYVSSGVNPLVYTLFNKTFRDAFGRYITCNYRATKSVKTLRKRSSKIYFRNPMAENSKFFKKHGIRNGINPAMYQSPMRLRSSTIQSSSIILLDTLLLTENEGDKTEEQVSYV

Structure (SMILES) | Emax ([1]; calcium flux, 5-HT2B) [%] | Potency (EC50) ([1]; calcium flux, 5-HT2B) | 5-HT2B receptor activation ([1]; calcium flux) | Mean Percent Inhibition of Control Specific Binding [2] [%] | Mean Percent Inhibition of Control Specific Binding [3] [%] | Mean Percent Inhibition of Control Specific Binding [4] [%] | Mean Percent Inhibition of Control Specific Binding [5] [%] | Mean Percent Inhibition of Control Specific Binding [6] [%] | Mean Percent Inhibition of Control Specific Binding [7] [%] | Mean Percent Inhibition of Control Specific Binding [8] [%] | Mean Percent Inhibition of Control Specific Binding [9] [%] | Mean Percent Inhibition of Control Specific Binding [10] [%] | EC50 [1] [nM]
COCc1cc(CCN)c(O)cc1CC(C)C [2CiBu-2OH-5MM, 2-(2-aminoethyl)-5-isobutyl-4-(methoxymethyl)phenol] | 2.64 | Unstable | unexpectedly reduced 5-HT2B receptor activation | 67.4 | 12.7 | −0.1 | −24.3 | 4.8 | 14.9 | 10.6 | −9.0 | 42.1 | –
COCCc1cc(CCN)c(OC)cc1Br [Compound 2CB-5ME, reference compound] | – | – | – | −5.7 | −4.3 | 3.3 | 3.5 | 11.2 | 21.5 | 47.9 | −3.5 | 31.8 | –
COCc1cc(CCN)c(OC)cc1Br [Compound 2CB-5MM, 2-(4-bromo-2-methoxy-5-(methoxymethyl)phenyl)ethan-1-amine] | 94 | – | – | −0.5 | 0.7 | −11.5 | 4.7 | 5.5 | 10.0 | 29.2 | −6.5 | 18.8 | 23.4
COCc1cc(CCN)c(OC)cc1CC(C)C [Compound 2CiBu-5MM, 2-[4-isobutyl-2-methoxy-5-(methoxymethyl)phenyl]ethanamine] | 45.7 | – | unexpectedly reduced 5-HT2B receptor activation | 3.0 | −4.2 | 12.2 | 12.0 | 5.3 | 16.0 | 31.8 | −1.5 | 38.3 | 497
